Measured values reported in patent US12234504B1 (priority 2023, dated 2025).
Positions of bridges follow the written chain, without caps; N, C: chain ends. Non-standard residues stand in square brackets, D forms with d. Residues, ends and D or L forms follow the SMILES beside them. *: point of attachment. Ileψ(thiazoline)Cys = CC[C@H](C)[C@H](N)C1=N[C@H](C(=O)*)CS1; dOrn = NCCC[C@@H](N)C(=O)O

Key:
[1] = target: T1, E. coli DNA gyrase (Escherichia coli, UniProt P0AES4+P0AES6); format: biochemical; conditions: 50 μM compound; for Fluorescent Intensity #1 / Fluorescent Intensity #2 / Mean Fluorescent Intensity: 50-compound library screen; for Fluorescent Intensity #1: duplicate 1; for Fluorescent Intensity #1 / Fluorescent Intensity #2: low fluorescence = gyrase poison; for Fluorescent Intensity #2: duplicate 2; for Mean Fluorescent Intensity: mean of duplicates; for hit in HTS pilot screen (inhibition ≥50% cutoff): duplicate; for fluorescence intensity compared with negative controls (in words): HTS screen
T1 construct: made in house
T1 sequence (P0AES4 whole entry, one chain of several): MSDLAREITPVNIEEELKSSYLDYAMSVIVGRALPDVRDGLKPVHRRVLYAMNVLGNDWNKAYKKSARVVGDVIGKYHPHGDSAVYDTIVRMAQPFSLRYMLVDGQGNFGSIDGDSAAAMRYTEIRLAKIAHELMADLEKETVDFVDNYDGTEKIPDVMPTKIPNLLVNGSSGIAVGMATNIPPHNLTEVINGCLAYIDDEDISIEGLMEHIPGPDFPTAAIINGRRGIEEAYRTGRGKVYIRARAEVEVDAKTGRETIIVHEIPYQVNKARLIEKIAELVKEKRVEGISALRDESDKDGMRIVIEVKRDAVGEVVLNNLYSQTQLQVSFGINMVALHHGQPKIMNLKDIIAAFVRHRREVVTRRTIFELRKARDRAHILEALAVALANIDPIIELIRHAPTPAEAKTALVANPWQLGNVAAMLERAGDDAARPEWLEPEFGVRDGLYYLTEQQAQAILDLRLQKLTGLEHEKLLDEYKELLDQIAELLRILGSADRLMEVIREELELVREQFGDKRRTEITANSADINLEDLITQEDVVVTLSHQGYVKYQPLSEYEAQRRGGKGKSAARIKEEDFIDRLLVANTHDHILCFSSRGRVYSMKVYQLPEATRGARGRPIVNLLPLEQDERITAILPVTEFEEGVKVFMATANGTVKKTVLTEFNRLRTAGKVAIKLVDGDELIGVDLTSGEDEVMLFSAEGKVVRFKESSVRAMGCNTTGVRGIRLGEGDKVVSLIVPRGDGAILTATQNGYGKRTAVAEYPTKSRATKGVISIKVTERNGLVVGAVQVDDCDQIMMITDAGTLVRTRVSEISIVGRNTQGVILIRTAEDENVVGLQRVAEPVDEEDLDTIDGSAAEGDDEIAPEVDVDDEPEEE
Method: FIGS. 6A-6B. High throughput screening (HTS) pilot screen of the 50-compound library for E. coli DNA gyrase poisoning inhibitors in duplicate. A final compound concentration of 50 μM was used. […] (A) Fluorescence raw data.
A Fluorescence-Based, T5 Exonuclease-Amplified DNA Cleavage Assay to Identify Poisoning Inhibitors for E. coli DNA Gyrase.
For negative control experiments, 1% DMSO was used. […] 0.5 mg/mL of proteinase K was then added to the reaction mixtures to digest DNA gyrase at 50° C. for 30 min. After the DNA samples were diluted 100 times using 1×NEB buffer 4 (20 mM Tris-Acetate, pH 7.9, 50 mM KAc, 10 mM Mg(AC)2, and 1 mM DTT), 30 μL of each DNA sample was transfer to a well of a 384-well plate. 200 nM of T5 exonuclease was used to digest DNA fragment for 2 hours at 37° C. 1×SYBR™ Green was added to all DNA samples. Fluorescence intensity was measured using a Biotek microplate reader with excitation wavelength of 497 nm and emission wavelength of 525 nm.
Z′ was calculated by the following equation: […]

[2] = target: T2, T5 exonuclease (Escherichia phage T5, UniProt P06229); assay: Detergent inhibition of T5 exonuclease on lambda DNA HindIII digest; format: biochemical; parameters: detergent concentration that inhibits T5 exonuclease: dose or concentration left out as unconfirmed
T2 construct: made in house
T2 sequence (P06229 whole entry): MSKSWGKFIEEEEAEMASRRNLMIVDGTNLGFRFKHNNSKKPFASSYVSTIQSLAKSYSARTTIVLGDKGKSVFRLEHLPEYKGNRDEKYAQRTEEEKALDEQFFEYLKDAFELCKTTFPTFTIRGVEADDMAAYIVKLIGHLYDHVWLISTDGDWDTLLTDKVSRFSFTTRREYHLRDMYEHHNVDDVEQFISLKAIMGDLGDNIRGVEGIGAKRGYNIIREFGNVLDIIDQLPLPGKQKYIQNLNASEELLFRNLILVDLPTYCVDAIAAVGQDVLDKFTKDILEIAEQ
Method: FIGS. 2A-2F. Agarose gel-based DNA gyrase cleavage assays were performed as described in Materials and Methods. […] Lane 7 is Lambda DNA HindIII digest as the molecular standard. […] (C) The appearance and disappearance of the gyrase-mediated linear band of plasmid pBR322 is dependent of the E. coli DNA gyrase concentration. High concentrations of E. coli DNA gyrase also cause disappearance of the supercoiled plasmid in the gyrase-mediated DNA cleavage assays. […] 500 ng of a DNA HindIII digest was digested using 50 nM of T5E in 20 μL of 1× gyrase-mediated DNA cleavage buffer (20 mM Tris-HCl pH 8, 50 mM KAc, 10 mM MgCl2, 2 mM DTT, 1 mM ATP, 0.1 mg/mL BSA) for 30 min in the presence of different concentrations of SDS. […] contained 0.000625, 0.00125, 0.0025, 0.005, 0.0125, and 0.025%, respectively. (E) Effects of sarkosyl on T5 exonuclease (T5E). 500 ng of a DNA HindIII digest was digested using 50 nM of T5E in 20 μL of 1× gyrase-mediated DNA cleavage buffer for 30 min in the presence of different concentrations of sarkosyl. Lanes 3 to 10 contained 0.005, 0.0125, 0.015, 0.02, 0.025, 0.05, 0.125, and 0.25%, respectively. (F) 50 nM of T5 exonuclease completely digested 500 ng of a DNA HindIII digest in 1× gyrase-mediated DNA cleavage buffer in the presence of 0.00125%. Lanes 1-7 contained 0, 5, 10, 20, 30, 40, and 50 nM of T5 exonuclease, respectively.
FIG. 3. […]

[3] = target: T1, E. coli DNA gyrase; format: biochemical; conditions: for fluorescence intensity of the DNA samples (in words): validation with 10 antibiotics, FIG. 5A; for effect on SYBR Green fluorescence intensity (in words): 20 μM compound, FIG. 7A
[4] = target: T1, E. coli DNA gyrase; assay: Agarose gel-based DNA gyrase-mediated DNA cleavage assay; format: biochemical; conditions: FIG. 7B
Method: FIGS. 2A-2F. Agarose gel-based DNA gyrase cleavage assays were performed as described in Materials and Methods. […] Lane 7 is Lambda DNA HindIII digest as the molecular standard. […] 500 ng of a DNA HindIII digest was digested using 50 nM of T5E in 20 μL of 1× gyrase-mediated DNA cleavage buffer (20 mM Tris-HCl pH 8, 50 mM KAc, 10 mM MgCl2, 2 mM DTT, 1 mM ATP, 0.1 mg/mL BSA) for 30 min in the presence of different concentrations of SDS. […] (E) Effects of sarkosyl on T5 exonuclease (T5E). 500 ng of a DNA HindIII digest was digested using 50 nM of T5E in 20 μL of 1× gyrase-mediated DNA cleavage buffer for 30 min in the presence of different concentrations of sarkosyl. […] Lanes 1-7 contained 0, 5, 10, 20, 30, 40, and 50 nM of T5 exonuclease, respectively.
DNA Gyrase and Human DNA Topoisomerase IIα Mediated DNA Cleavage Assay.
250 ng of relaxed plasmid pBR322 and 20 nM of E. coli DNA gyrase or human DNA topoisomerase IIα were mixed and incubated in 1×gyrase-mediated DNA cleavage buffer (20 mM Tris-HCl pH 8, 50 mM KAc, 10 mM MgCl2, 2 mM DTT, 1 mM ATP, 0.1 mg/mL BSA) at 37° C. for 15 minutes in the presence of an inhibitor or compound. After the incubation, 0.2% SDS and 0.1 mg/ml proteinase K were added to the reaction mixtures to trap the topoisomerase-inhibitor-DNA complex and digest the topoisomerase, respectively, by incubating for an additional 30 min at 37° C. DNA samples were analyzed in 1% agarose gel containing […] ethidium bromide in 1′TAE buffer and photographed under UV light. […] Etoposide was used as a positive control for human DNA topoisomerase IIα-mediated DNA cleavage assays.

[5] = target: T1, E. coli DNA gyrase; conditions: read-out: IC50 against E. coli DNA gyrase; cited from earlier work

O=C[C@H](O)[C@@H](O)[C@@H](O)[C@H](O)CO [D-galactose]
Fluorescent Intensity #1 [1]: 4111
Fluorescent Intensity #2 [1]: 6277
Mean Fluorescent Intensity [1]: 5194

O=C[C@H](O)[C@@H](O)[C@H](O)[C@H](O)CO [D-glucose]
Fluorescent Intensity #1 [1]: 4444
Fluorescent Intensity #2 [1]: 5984
Mean Fluorescent Intensity [1]: 5214

O=C[C@H](O)[C@@H](O)[C@@H](O)CO [L-arabinose]
Fluorescent Intensity #1 [1]: 4824
Fluorescent Intensity #2 [1]: 7032
Mean Fluorescent Intensity [1]: 5928

CCCCCCCCCCCCOS(=O)(=O)[O-].[Na+] [SDS, sodium dodecyl sulfate]
effect on T5 exonuclease activity (in words) ([2]; 50 nM T5E, FIG. 2D/2E, SDS low concentrations, sarkosyl e.g. 0.015%): completely inhibited T5 exonuclease activity
detergent concentration that inhibits T5 exonuclease ([2]; FIG. 3): ≥ 0.05%

CC1(C)S[C@@H]2[C@H](NC(=O)[C@H](N)c3ccccc3)C(=O)N2[C@H]1C(=O)O [ampicillin]
fluorescence intensity of the DNA samples (in words) [3]: high

CC[C@H](C)[C@H](N)C1=N[C@H](C(=O)N[C@@H](CC(C)C)C(=O)N[C@H](CCC(=O)O)C(=O)N[C@H](C(=O)N[C@H]2CCCCNC(=O)[C@H](CC(N)=O)NC(=O)[C@@H](CC(=O)O)NC(=O)[C@H](Cc3cnc[nH]3)NC(=O)[C@@H](Cc3ccccc3)NC(=O)[C@H]([C@@H](C)CC)NC(=O)[C@@H](CCCN)NC2=O)[C@@H](C)CC)CS1 [bacitracin] ({Ileψ(thiazoline)Cys}-L[dE]IK[dOrn]I[dF]H[dD]N; lactam 4-C)
Fluorescent Intensity #1 [1]: 7743
Fluorescent Intensity #2 [1]: 6533
Mean Fluorescent Intensity [1]: 7138

CCN(CC)CCCC(C)Nc1ccnc2cc(Cl)ccc12 (stereo not shown) [chloroquine]
Fluorescent Intensity #2 [1]: 8002

COc1cccc2c1C(=O)c1c(O)c3c(c(O)c1C2=O)C[C@@](O)(C(=O)CO)C[C@@H]3O[C@H]1C[C@H](N)[C@H](O)[C@H](C)O1 [doxorubicin]
gyrase-mediated DNA cleavage / gyrase poisoning (in words) [4]: did not cause gyrase-mediated DNA cleavage
hit in HTS pilot screen (inhibition ≥50% cutoff) [1]: hits and false positive
effect on SYBR Green fluorescence intensity (in words) [3]: quenched

CS[C@H]1SC[C@H]2C(=O)N(C)[C@@H](C(C)C)C(=O)OC[C@@H](NC(=O)c3cnc4ccccc4n3)C(=O)N[C@@H](C)C(=O)N(C)[C@@H]1C(=O)N(C)[C@@H](C(C)C)C(=O)OC[C@@H](NC(=O)c1cnc3ccccc3n1)C(=O)N[C@@H](C)C(=O)N2C [echinomycin]
gyrase-mediated DNA cleavage / gyrase poisoning (in words) [4]: do not possess gyrase poisoning properties
fluorescence intensity compared with negative controls (in words) [1]: significant low fluorescence signals
effect on SYBR Green fluorescence intensity (in words) [3]: did not reduce the fluorescence intensity

CCN1CCN(c2cc3c(cc2F)c(=O)c(C(=O)O)cn3C2CC2)CC1 [enrofloxacin]
hit in HTS pilot screen (inhibition ≥50% cutoff) [1]: hits

CCOc1ccc2nc3cc(N)ccc3c(N)c2c1 [etharcridine]
gyrase-mediated DNA cleavage / gyrase poisoning (in words) [4]: do not possess gyrase poisoning properties
fluorescence intensity compared with negative controls (in words) [1]: significant low fluorescence signals
effect on SYBR Green fluorescence intensity (in words) [3]: did not reduce the fluorescence intensity

CCn1cc(C(=O)O)c(=O)c2cc(F)c(N3CCNC(C)C3)c(F)c21 (stereo not shown) [lomefloxacin]
hit in HTS pilot screen (inhibition ≥50% cutoff) [1]: hits

CCn1cc(C(=O)O)c(=O)c2ccc(C)nc21 [nalidixic acid]
IC50 [5]: > 50 µM
fluorescence intensity compared with negative controls (in words) [1]: much lower
hit in HTS pilot screen (inhibition ≥50% cutoff) [1]: hits

CCn1cc(C(=O)O)c(=O)c2cc(F)c(N3CCNCC3)cc21 [norfloxacin]
hit in HTS pilot screen (inhibition ≥50% cutoff) [1]: hits

CCn1cc(C(=O)O)c(=O)c2cc3c(cc21)OCO3 [oxolinic acid]
hit in HTS pilot screen (inhibition ≥50% cutoff) [1]: hits

Nc1ccc(S(N)(=O)=O)cc1 [sulfanilamide]
fluorescence intensity of the DNA samples (in words) [3]: high

Cc1ccc(C(=O)Nc2ccc(S(=O)(=O)O)c3cc(S(=O)(=O)O)cc(S(=O)(=O)O)c23)cc1NC(=O)c1cccc(NC(=O)Nc2cccc(C(=O)Nc3cc(C(=O)Nc4ccc(S(=O)(=O)O)c5cc(S(=O)(=O)O)cc(S(=O)(=O)O)c45)ccc3C)c2)c1 [suramin]
gyrase-mediated DNA cleavage / gyrase poisoning (in words) [4]: do not possess gyrase poisoning properties
fluorescence intensity compared with negative controls (in words) [1]: significant low fluorescence signals
effect on SYBR Green fluorescence intensity (in words) [3]: did not reduce the fluorescence intensity

CN(C)[C@@H]1C(O)=C(C(N)=O)C(=O)[C@@]2(O)C(O)=C3C(=O)c4c(O)cccc4[C@@](C)(O)[C@H]3C[C@@H]12 [tertracycline]
Fluorescent Intensity #1 [1]: 9594
Fluorescent Intensity #2 [1]: 9920
Mean Fluorescent Intensity [1]: 9757

CC[C@@]1(O)C(=O)OCc2c1cc1n(c2=O)Cc2cc3c(CN(C)C)c(O)ccc3nc2-1 [topotecan]
gyrase-mediated DNA cleavage / gyrase poisoning (in words) [4]: do not possess gyrase poisoning properties
fluorescence intensity compared with negative controls (in words) [1]: significant low fluorescence signals
effect on SYBR Green fluorescence intensity (in words) [3]: did not reduce the fluorescence intensity

polymyxin B sulfate salt
Fluorescent Intensity #1 [1]: 6067
Fluorescent Intensity #2 [1]: 10508
Mean Fluorescent Intensity [1]: 8287.5
fluorescence intensity of the DNA samples (in words) [3]: high
